Laboratory results taken from patent publication US10800816B2 (Baxalta GmbH, priority 2012, dated 2020).
Bridges are numbered along the chain shown (N, C = ends). [ ]: non-standard residue; d: D form. Aib = CC(C)(N)C(=O)O

Assays:
[1] = molecular target: T1, plasma- and platelet TFPI (Homo sapiens, UniProt P10646); assay: Thrombin generation in platelet-poor and platelet-rich plasma; assay type: biochemical
T1 construct: from tissue; donor PPP and PRP
T1 sequence (P10646 29-304): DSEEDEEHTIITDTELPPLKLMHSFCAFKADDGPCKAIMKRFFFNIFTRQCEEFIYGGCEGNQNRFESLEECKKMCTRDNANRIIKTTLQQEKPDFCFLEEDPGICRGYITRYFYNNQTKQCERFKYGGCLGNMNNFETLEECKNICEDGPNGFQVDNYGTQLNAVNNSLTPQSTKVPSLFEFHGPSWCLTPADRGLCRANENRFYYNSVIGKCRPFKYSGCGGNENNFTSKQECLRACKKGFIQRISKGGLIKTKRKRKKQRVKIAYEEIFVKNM

HUVEC TFPI = molecular target: T2, HUVEC TFPI (Homo sapiens, UniProt P10646); assay: Cell-based extrinsic tenase assay (HUVEC); conditions: relative to 100 nM polyclonal anti-human TFPI antibody = 100%
T2 construct: endogenous in cells; host or cells: HUVEC stimulated with TNFα
T2 sequence (P10646 29-304): T1 sequence (P10646 29-304)

platelet TFPI = molecular target: T3, platelet TFPI (Homo sapiens, UniProt P10646); assay: TF-FVIIa-catalysed FX activation inhibited by platelet TFPI; assay type: biochemical; conditions: 50 nM peptide
T3 construct: from tissue; donor PPP and PRP
T3 sequence (P10646 29-304): T1 sequence (P10646 29-304)

TFPI [2] = molecular target: T4, TFPI (Homo sapiens, UniProt P10646); assay: Plasma-based thrombin generation assay (calibrated automated thrombography), human plasma; conditions: 50-100 nM peptide; 10 nM flTFPI, FVIII-inhibited plasma
T4 sequence (P10646 29-304): T1 sequence (P10646 29-304)

cynomolgus TFPI 1-160 = assay: FXa inhibition assay with cynomolgus monkey TFPI 1-160; assay type: biochemical
fl-TFPI / ASGPR = molecular target: T5, fl-TFPI / ASGPR (Homo sapiens, UniProt P10646); assay: BIAcore: fl-TFPI binding to ASGPR in presence of peptide; conditions: 1 μM peptide
T5 sequence (P10646 29-304): T1 sequence (P10646 29-304)

TFPI [3] = molecular target: T4, TFPI; assay: koff assay; assay type: binding; conditions: 24 hour incubation
in vitro = conditions: human, plasma
TFPI [4] = assay: Extrinsic tenase inhibition assay; conditions: Table 19; 0.0625 nM TFPI
TFPI [5] = molecular target: T4, TFPI; assay: FXa inhibition by TFPI in presence of Ca2+, phospholipid and protein S; assay type: biochemical; conditions: 50 nM peptide; PL+Ca2++protein S
Protocol: The effects of TFPI binding peptides on the anticoagulant activity of TFPI was tested in model systems (inhibition of FXa and TF-FVIIa-catalysed FX activation by TFPI) and in plasma (NP, PPP, PRP or TFPI-depleted plasma reconstituted with recombinant- or platelet-TFPI or platelets). […] […])/kobs in which At is absorbance at 405 nm at time t; A0 is initial absorbance at 405 nm; vs is final steady-state velocity; v0 is initial velocity; kobs is apparent rate constant for the transition from v0 to vs (FXa-TFPI to FXa-TFPI*). The values v0 and vs relative to rates of chromogenic substrate conversion by FXa in the absence of TFPI, represent the extent of loose and tight FXa-TFPI complex formation.

[6] = test system: FVIII-inhibited whole blood; assay: Rotation thromboelastography (ROTEM) in whole blood; parameters: species or system human; conditions: concentrations above 100 nM; 2 nM and 10 nM full length TFPI added
TFPI [7] = assay: FXa inhibition assay (human TFPI); conditions: all human TFPI concentrations tested (up to 10 nM)
fl-TFPI / LRP = molecular target: T6, fl-TFPI / LRP (Homo sapiens, UniProt P10646); assay: BIAcore: fl-TFPI binding to LRP in presence of peptide; conditions: 1 μM peptide, 10 nM fl-TFPI
T6 sequence (P10646 29-304): T1 sequence (P10646 29-304)
T6 sequence (Q07954 852-1182 partner limits assumed): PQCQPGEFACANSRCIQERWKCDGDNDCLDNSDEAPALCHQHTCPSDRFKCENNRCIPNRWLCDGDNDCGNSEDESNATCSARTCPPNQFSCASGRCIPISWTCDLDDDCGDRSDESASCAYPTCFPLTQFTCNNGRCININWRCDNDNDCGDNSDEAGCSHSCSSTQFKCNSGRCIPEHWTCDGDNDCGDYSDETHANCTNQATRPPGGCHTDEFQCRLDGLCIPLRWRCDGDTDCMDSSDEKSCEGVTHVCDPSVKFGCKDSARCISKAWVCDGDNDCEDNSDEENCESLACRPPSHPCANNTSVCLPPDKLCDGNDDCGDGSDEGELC

neutrophil elastase = assay: Proteolytic degradation of fl-TFPI by neutrophil elastase; assay type: biochemical, human; conditions: 1 μM peptide, 5 nM fl-TFPI, 5 nM elastase, up to 60 minutes

## Ac-FQSK[dP]NVHVDGYFERL[Aib]AKLSSSSSSSSSSSYYKWHCAMRDMKGTMTCVWVKF-NH2 (disulfide 37-48 (inferred)) [JBT2547]
[1]; PPP
  enhancement of thrombin generation: 3-4 fold
[1]; PPP and PRP
  concentration sufficient to fully inhibit TFPI: 5 to 10 nM
[1]; PRP with inhibitory FVIII antibody
  enhancement of thrombin generation: 3 fold
HUVEC TFPI
  concentration achieving full inhibition of TFPI: about 10 nM
Platelet TFPI
  blocking of platelet TFPI inhibition of TF-FVIIa-catalysed FX activation: completely blocked the anticoagulant activity of TFPI
TFPI [2]
  compensation of added flTFPI: fully compensated the anticoagulant effect of 10 nM flTFPI
Cynomolgus TFPI 1-160
  reduction of EC50 compared to JBT1857: approximately 200 fold
  reduction of EC50 compared to the combination of JBT1837 and JBT1857: ~10 fold
Cynomolgus TFPI 1-160; Table 20
  Cynomolgus Monkey TFPI 1-160 Maximal inhibition (%): 100%
fl-TFPI / ASGPR
  fl-TFPI interaction with ASGPR in presence of peptide: interacted with ASGPR
TFPI [3]
  blocking of tracer JBT2271 binding after incubation: continued to block binding of the tracer to TFPI
In vitro
  remaining at 24 h: 54%
TFPI [4]
  Extrinsic Tenase Assay Maximal inhibition (%): 99%
TFPI [5]
  blocking of TFPI: almost completely blocked TFPI
[6]
  restoration of coagulation with added full length TFPI: fully restored normal coagulation of FVIII-inhibited whole blood
TFPI [7]
  inhibition of TFPI activity: 100%
fl-TFPI / LRP
  fl-TFPI interaction with LRP in presence of peptide: higher response than that observed for TFPI complexed with single peptides
Neutrophil elastase
  effect on proteolysis of fl-TFPI by neutrophil elastase: proteolysis of fl-TFPI was blocked during the monitored time
